# Laboratory results from US12329735B2, “Azelaic acid esters in the treatment of insulin resistance” (NEW FRONTIER LABS, LLC, priority 2016, dated 2025).
# Experiments:
# [1] = tested on: EpiDerm 3-D human skin tissue; test: EpiDerm 3-D human skin tissue exposed to croton oil plus azelates, multiplex immunoassays of 47 markers; format: cell-based; conditions: croton oil + azelate, 24 hours; medium and tissue lysates
# Method: EpiDerm 3-D human skin tissue (MatTek) was exposed to an irritant, croton oil+the azelates for 24 hours. Levels of 47 cytokines and other signaling molecules were measured in cultured media and tissue lysates using multiplex immunoassays. Relative % differences in levels of select markers in medium and tissues after treatment with croton oil plus azelates versus croton oil alone were graphed as heat maps displaying statistically significant/nearly significant differences and distinct patterns of marker modulation. The azelates also exerted chemoprotective activity against croton oil damage on microscopic examination.
# [2] = Human clinical trial: OGTT in non-diabetic insulin resistant adult males at Day 1 and Day 21; format: in vivo; conditions: for Percent change: Day-1 vs. Day-21 average blood glucose: (Day-1 − Day-21)/Day-21 ×100%; for OGTT Blood Glucose Level, Day-21 Group Average: after 21 days 1 mg/kg oral once a day, 3 subjects
# Method: A total of eight subjects were screened, out of which four subjects satisfied all the eligibility criteria. Three healthy male volunteers ranging between 18-50 years of age weighing between 80-120 kg were enrolled in the study. At screening, subjects were non-diabetic insulin resistant (NDIR) having a fasting plasma glucose of greater than 75 mg/dL and less than 126 mg/dL and have a compensatory hyperinsulinemia having a mean of two consecutive fasting insulin samples collected between 10 to 30 minutes apart of great than 12 μIU/mL. Subjects had no clinically significant illness that may affect glucose metabolism, insulin sensitivity or makes them otherwise unsuitable for inclusion in the study. Subjects had no history or ongoing significant abnormalities or diseases, in the areas, such as, endocrine, gastrointestinal, cardiovascular, hematological, renal, upper or lower respiratory, neoplasia. Subjects had no uncontrolled blood pressure of greater than 160/95 mmHg at screening. […] Subjects had not used antidiabetic or antihyperglycemic medications in the last 6 months. Subjects had not used tobacco or nicotine containing products in the last 3 months. Subjects were not mentally or legally incapacitated. Subjects had no history of significant psychiatric disorder (within the last 10 years) and had no significant emotional problems at the time of the study. All subjects were evaluable for safety and all blood collections for pharmacokinetic analysis were collected as scheduled. All studies were performed with institutional review board approval and patient consent. The Board was constituted and operated in accordance with the principles and requirements described in the US Code of Federal Regulations (21 CFR Part 56). The board was ICH compliant. This study was an open label test/retest study measuring the change from baseline of selected biomarkers and computational indices of insulin sensitivity of the adult male volunteers in response to multiple doses of diethyl azelate. The study population was restricted to male participants in order to control for the variability associated with the menstrual cycle on the metabolic parameters of interest (Sheu, Chen et al. 2003). Baseline parameters were assessed followed by retest assessments at three weeks (21-days) post-dose. Diethyl azelate (density of 0.973 g/mL at 25° C. or 973 mg/mL) was administered orally by needless syringes once a day at 1 mg/kg to each subject for 21 days starting at Day 1. The dose was calculated as described below, with standard rounding conventions applied to the nearest 0.01 mL: 1 mg/kg×Participant Weight (kg)×(1 mL/973 mg)=X mL to Dose Additional marketed pharmaceutical products were administered as part of the study procedures or as challenge agents associated with the Oral Glucose Tolerance (OGTT). These include 75 g CHO (carbohydrate) Glucola and small volumes of 0.9% Normal Saline administered intravenously secondary to blood collection. Subjects were evaluated with a baseline OGTT on Day 1 and a final OGTT on Day 21. Safety assessments were performed on each subject during the course of the study including clinical examination, vital signs recording, ECG recording, adverse event (AE) monitoring, and concomitant medication assessment. An Oral Glucose Tolerance Test (OGTT) was performed at baseline on Day 1 and Day 21. The OGTT was performed after a fast greater than eight hours and consisted of eight blood collections. Subjects were administrated a bottle of Glucola drink (containing 50% dextrose I 75 g dextrose in 150 mL solution; available as GlucoCrush™) over a course of five minutes, starting at T=0 (first sip of the Glucola). Two blood-draws occurred ˜30 minutes and just prior (˜0 minute) to administration of the Glucola. Post-meal blood collection occurred at 30, 60, 90, 120, and 180 minutes. Samples for glucose and exploratory PK and biomarker samples were collected at all timepoints associated with the OGTT. […]
# [3] = tested on: PAMP receptors (Toll-Like Receptors) on dendritic cells; test: PAMP receptor agonist-induced signaling in dendritic cells; format: cell-based; conditions: 0.5% DEA, 24 hours
# Method: The azelates modulated broad-range signaling of pathogen-associated molecular patterns (PAMP) receptors: Toll-Like Receptors (TLRs) are a class of PAMP receptors. Various PAMP receptor agonists (ligands); nineteen discrete entities, were added to dendritic cells along with 0.5% diethyl azelate (DEA) and measured levels of 34 signaling molecules (ATP, cytokines, chemokines) produced by the cells after 24 hours. To assess if DEA affected PAMP receptor signaling, the ratios of the levels of these molecules were calculated in treated and untreated cells. If DEA had no effect, these ratios would be equal to 1. […] A similar effect of DEA was observed on the ratios of other signaling molecules.
# [4] = Oral glucose tolerance test in ethanol-induced insulin resistance state, human self-study; format: in vivo
# [5] = Human clinical trial: safety and tolerability; format: in vivo
# Method: To evaluate the safety and tolerability of diethyl azelate (immediate release form) when administered orally to insulin resistant adult male volunteers, and to evaluate the change from baseline of selected biomarkers and computational indices of dysmetabolism when diethyl azelate is administered orally to insulin resistant adult male volunteers.
# A total of eight subjects were screened, out of which four subjects satisfied all the eligibility criteria. Three healthy male volunteers ranging between 18-50 years of age weighing between 80-120 kg were enrolled in the study. At screening, subjects were non-diabetic insulin resistant (NDIR) having a fasting plasma glucose of greater than 75 mg/dL and less than 126 mg/dL and have a compensatory hyperinsulinemia having a mean of two consecutive fasting insulin samples collected between 10 to 30 minutes apart of great than 12 μIU/mL. Subjects had no clinically significant illness that may affect glucose metabolism, insulin sensitivity or makes them otherwise unsuitable for inclusion in the study. Subjects had no history or ongoing significant abnormalities or diseases, in the areas, such as, endocrine, gastrointestinal, cardiovascular, hematological, renal, upper or lower respiratory, neoplasia. Subjects had no uncontrolled blood pressure of greater than 160/95 mmHg at screening. […] Subjects had not used antidiabetic or antihyperglycemic medications in the last 6 months. […]
# Diethyl azelate (density of 0.973 g/mL at 25° C. or 973 mg/mL) was administered orally by needless syringes once a day at 1 mg/kg to each subject for 21 days starting at Day 1. The dose was calculated as described below, with standard rounding conventions applied to the nearest 0.01 mL: 1 mg/kg×Participant Weight (kg)×(1 mL/973 mg)=X mL to Dose
# Additional marketed pharmaceutical products were administered as part of the study procedures or as challenge agents associated with the Oral Glucose Tolerance (OGTT). […] Subjects were evaluated with a baseline OGTT on Day 1 and a final OGTT on Day 21. […]
# [6] = oral 1 mg/kg once a day, 21 days, three subjects
structure (smiles),measurement,setting,value
CCOC(=O)CCCCCCCC(=O)OCC [diethyl azelate],"cytokine levels (IL-1 a, IL-6, IL-8, TNF-a) versus croton oil alone",[1],"downregulated multiple cytokines relevant to T2D including IL-1 a, IL-6, IL-8, and TNF-a"
same,Percent change: Day-1 vs. Day-21 average blood glucose,[2]; 0 min,6.5%
same,"OGTT Blood Glucose Level, Day-21 Group Average",[2]; 0 min,94.5 mg/dL
same,Percent change: Day-1 vs. Day-21 average blood glucose,[2]; 30 min,14.5%
same,"OGTT Blood Glucose Level, Day-21 Group Average",[2]; 30 min,148.0 mg/dL
same,Percent change: Day-1 vs. Day-21 average blood glucose,[2]; 60 min,15.7%
same,"OGTT Blood Glucose Level, Day-21 Group Average",[2]; 60 min,142.3 mg/dL
same,Percent change: Day-1 vs. Day-21 average blood glucose,[2]; 90 min,46.3%
same,"OGTT Blood Glucose Level, Day-21 Group Average",[2]; 90 min,105.8 mg/dL
same,Percent change: Day-1 vs. Day-21 average blood glucose,[2]; 120 min,15.1%
same,"OGTT Blood Glucose Level, Day-21 Group Average",[2]; 120 min,99.2 mg/dL
same,Percent change: Day-1 vs. Day-21 average blood glucose,[2]; 180 min,18.6%
same,"OGTT Blood Glucose Level, Day-21 Group Average",[2]; 180 min,71.2 mg/dL
same,insulin metabolism profile after treatment,"[2]; all three subjects, after 21 days of treatment",normal healthy insulin metabolism profiles
same,average blood glucose levels after the 3-weeks treatment course,"[2]; at T=30 mins and 60 mins, pre-treatment 164 to 170 mg/dl",below 150 mg/dl
same,Percent change: Day-1 vs. Day-21 average blood glucose,[2]; −5 min,6.2%
same,"OGTT Blood Glucose Level, Day-21 Group Average",[2]; −5 min,94.0 mg/dL
same,Percent change: Day-1 vs. Day-21 average blood glucose,[2]; −30 min,6.0%
same,"OGTT Blood Glucose Level, Day-21 Group Average",[2]; −30 min,94.1 mg/dL
same,signaling induced by TLR agonists (ATP ratio treated/untreated cells),[3],decreased signaling induced by most TLR agonists
same,effect on signaling of PAMP receptors,[3]; 34 signaling molecules,affected signaling of all PAMP receptors but the effect was greater for the receptors localized on the cell surface than for these inside the cell
same,percentage decrease of glucose levels vs untreated control state (ethanol-induced insulin resistance),"[4]; fasting (t=0), p=0.02",13.6%
same,change in blood glucose in induced insulin resistance state (OGTT),"[4]; human self-study, 50 ml ethanol, 1 mg/kg oral 8 hours prior to OGTT (75 g glucose), 0, 1, 2, 4 hours",significant decrease of glucose at the baseline (fasting) and highly significant (p<0.0001) at the peak postprandial time point at 2 hours
same,percentage decrease of glucose levels vs untreated control state (ethanol-induced insulin resistance),"[4]; t=1 hour, statistically not significant",11.4%
same,percentage decrease of glucose levels vs untreated control state (ethanol-induced insulin resistance),"[4]; t=2 hours, p=6×10−6",36.7%
same,increase in glucose level vs untreated control state (ethanol-induced insulin resistance),"[4]; t=4 hours, not statistically significant",8.8%
same,adverse events observed,[5]; [6],loose stools in one subject
same,"drug-related changes in physical examinations, vital signs, or electrocardiograms (ECGs)",[5]; [6],no clinically meaningful drug-related changes
same,tolerability,"[5]; oral, three male subjects",well tolerated
